According to patent US20100137313A1 (ASTRAZENECA AB, priority 2008, published 2010):

The compounds below were run against S. pneumoniae Topoisomerase IV ATPase (ParE) (Streptococcus pneumoniae serotype 4, UniProt Q59961) (assay: S. pneumoniae Topoisomerase IV ATPase inhibition). Conditions: values marked * are an average of two or more data points, read-out: % Inh (13 μM) of S. pneumoniae Topoisomerase IV ATPase.
Assay type: biochemical
Procedure, shortened: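 Phosphate-release ATPase assay: 1.25 nM ParE, 160 μM ATP, DNA-stimulated. Quench with malachite green/molybdate in 1 M HCl, read 650 nm; IC50 from 10-point dose series.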

Sequence of S. pneumoniae Topoisomerase IV ATPase (ParE) (Q59961 whole entry): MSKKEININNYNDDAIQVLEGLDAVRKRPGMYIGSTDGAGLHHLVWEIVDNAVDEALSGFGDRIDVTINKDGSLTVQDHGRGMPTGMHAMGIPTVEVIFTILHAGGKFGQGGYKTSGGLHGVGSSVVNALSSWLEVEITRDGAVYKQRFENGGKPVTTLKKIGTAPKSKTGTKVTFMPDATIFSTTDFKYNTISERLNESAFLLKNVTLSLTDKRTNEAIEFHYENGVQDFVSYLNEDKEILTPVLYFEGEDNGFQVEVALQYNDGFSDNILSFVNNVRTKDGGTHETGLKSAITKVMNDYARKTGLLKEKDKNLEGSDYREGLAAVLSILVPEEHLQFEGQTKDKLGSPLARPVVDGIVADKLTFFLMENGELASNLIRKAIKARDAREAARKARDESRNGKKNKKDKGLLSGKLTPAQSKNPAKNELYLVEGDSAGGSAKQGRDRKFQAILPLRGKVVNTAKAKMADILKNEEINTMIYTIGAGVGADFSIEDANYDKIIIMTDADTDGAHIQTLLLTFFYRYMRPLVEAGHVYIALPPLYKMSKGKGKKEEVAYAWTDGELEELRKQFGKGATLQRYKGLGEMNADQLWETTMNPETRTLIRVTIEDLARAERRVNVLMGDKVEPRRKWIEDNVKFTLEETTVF

SMILES | inhibition at 13 µM
COCCNC(=O)c1cncc(-c2cnc(Nc3ccc(F)c(Cl)c3)nc2-n2nc(C(F)(F)F)cc2C)c1 [Example 934, 5-(2-(3-chloro-4-fluorophenylamino)-4-(5-methyl-3-(trifluoromethyl)-1H-pyrazol-1-yl)pyrimidin-5-yl)-N-(2-methoxyethyl)nicotinamide] | 100%
COc1cc(Nc2ncc(-c3cnc(OC)c(C(=O)NS(=O)(=O)c4cn(C)c(=O)n(C)c4=O)c3)c(-n3nc(C(F)(F)F)cc3C)n2)cc(OC)c1 [Example 847, 5-{2-[(3,5-dimethoxyphenyl)amino]-4-[5-methyl-3-(trifluoromethyl)-1H-pyrazol-1-yl]pyrimidin-5-yl}-N-[(1,3-dimethyl-2,4-dioxo-1,2,3,4-tetrahydropyrimidin-5-yl)sulfonyl]-2-methoxypyridine-3-carboxamide] | 97%
COc1cc(F)cc(Nc2ncc(-c3cccc(C(=O)O)c3)c(-n3ccc(C(F)(F)F)n3)n2)c1 [Example 893, 3-(2-(3-fluoro-5-methoxyphenylamino)-4-(3-(trifluoromethyl)-1H-pyrazol-1-yl)pyrimidin-5-yl)benzoic acid] | 99%
COc1cc(Nc2ncc(-c3cncc(C(=O)O)c3)c(N3CCOCC3)n2)ccc1F [Example 441] | 74%
O=C(O)c1cncc(-c2cnc(Nc3ccc(F)c(Cl)c3)nc2NCc2ccccn2)c1 [Example 222, 5-{2-(3-Chloro-4-fluoro-phenylamino)-4-[(pyridin-2-ylmethyl)-amino]-pyrimidin-5-yl]-nicotinic acid] | 76.2%
COc1cc(Nc2ncc(-c3cc(C(=O)NS(C)(=O)=O)c(=O)n(C)c3)c(-n3nc(C(F)(F)F)cc3C)n2)cc(OC)c1 [Example 1026] | 98%
CC(Oc1ncc(-c2cnc(Nc3ccc(F)c(Cl)c3)nc2-n2ccc(C(F)(F)F)n2)cc1C(=O)O)c1ccncc1 (centres unmarked) [Example 793, 5-{2-[(3-chloro-4-fluorophenyl)amino]-4-[3-(trifluoromethyl)-1H-pyrazol-1-yl]pyrimidin-5-yl}-2-[1-(pyridin-4-yl)ethoxy]pyridine-3-carboxylic acid] | 100%
CCOC(=O)c1cncc(-c2cnc(Nc3ccc(F)c(Cl)c3)nc2NCc2cncn2C)c1 [Example 145, ethyl 5-(2-(3-chloro-4-fluorophenylamino)-4-((1-methyl-1H-imidazol-5-yl)methylamino)pyrimidin-5-yl) nicotinate] | 77.4%
COc1cc(Nc2ncc(-c3ccc(C(=O)O)s3)c(-n3nc(C(F)(F)F)cc3C)n2)cc(C(F)(F)F)c1 [Example 883, 5-(2-(3-methoxy-5-(trifluoromethyl)phenylamino)-4-(5-methyl-3-(trifluoromethyl)-1H-pyrazol-1-yl)pyrimidin-5-yl)thiophene-2-carboxylic acid] | 99%
COc1ncc(-c2cnc(Nc3ccc(F)c(Cl)c3)nc2-n2ccc(C(F)(F)F)n2)cc1C(=O)O [Example 1066, 5-(2-(3-chloro-4-fluorophenylamino)-4-(3-(trifluoromethyl)-1H-pyrazol-1-yl)pyrimidin-5-yl)-2-methoxynicotinic acid] | 100%
Cc1cc(C(F)(F)F)nn1-c1nc(Nc2ccc(F)c(Cl)c2)ncc1-c1cncc(S(=O)(=O)N2CCOCC2)c1 [Example 1036] | 100%
CCOC(=O)/C=C/c1cccc(-c2cnc(Nc3ccc(F)c(Cl)c3)nc2N2CCCCC2)c1 [Example 171, (E)-ethyl 3-(3-(2-(3-chloro-4-fluorophenylamino)-4-(piperidin-1-yl)pyrimidin-5-yl)phenyl)acrylate] | 3.62%
CN(C)CCCNc1nc(Nc2ccc(F)c(Cl)c2)ncc1-c1cn[nH]c1 [Example 20, N^2-(3-chloro-4-fluorophenyl)-N^4-[3-(dimethylamino)propyl]-5-(1H-pyrazol-4-yl)pyrimidine-2,4-diamine] | 74.6%
CN(C)CCCNc1nc(Nc2ccc(F)c(Cl)c2)ncc1-c1ccc2cc[nH]c2c1 [Example 4, N^2-(3-chloro-4-fluorophenyl)-N^4-(3-(dimethylamino)propyl)-5-(1H-indol-6-yl)pyrimidine-2,4-diamine] | 93.1%
COc1cc(Nc2ncc(-c3cncnc3)c(N[C@@H]3CCOC3)n2)cc(OC)c1 [Example 358, (R)-N^2-(3,5-dimethoxyphenyl)-N^4-(tetrahydrofuran-3-yl)-5,5′-bipyrimidine-2,4-diamine] | 63%
O=C(O)c1cncc(-c2cnc(Nc3ccc(F)c(Cl)c3)nc2N2CCC(O)C2)c1 (centres unmarked) [Example 250, 5[2-[(3-chloro-4-fluorophenyl)amino]-4-(3-hydroxypyrrolidin-1-yl)pyrimidin-5-yl]pyridine-3-carboxylic acid] | 74.4%

SMILES | inhibition at 13 µM
O=C(O)/C=C/c1cccc(-c2cnc(Nc3ccc(F)c(Cl)c3)nc2-n2ccnc2)c1 [Example 359, (E)-3-(3-(2-(3-chloro-4-fluorophenylamino)-4-(1H-imidazol-1-yl)pyrimidin-5-yl)phenyl)acrylic acid] | 86.1%
CN1CCN(CCNc2nc(Nc3ccc(F)c(Cl)c3)ncc2-c2cccc(/C=C/C(=O)O)c2)CC1 [Example 270, (2E)-3-[3-(2-[(3-chloro-4-fluorophenyl)amino]-4-{[2-(4-methylpiperazin-1-yl)ethyl]amino}pyrimidin-5-yl)phenyl]prop-2-enoic acid] | 87.7%
CS(=O)(=O)c1cccc(Nc2ncc(-c3cccc(/C=C/C(=O)O)c3)c(-n3ccc(C(F)(F)F)n3)n2)c1 [Example 623, (2E)-3-[3-(2-{[3-(methylsulfonyl)phenyl]amino}-4-[3-(trifluoromethyl)-1H-pyrazol-1-yl]pyrimidin-5-yl)phenyl]prop-2-enoic acid] | 100%
Cc1cc(C(F)(F)F)nn1-c1nc(Nc2cccc(F)c2)ncc1-c1cncc(C(=O)O)c1 [Example 642, 5-{2-[(3-fluorophenyl)amino]-4-[5-methyl-3-(trifluoromethyl)-1H-pyrazol-1-yl]pyrimidin-5-yl}pyridine-3-carboxylic acid] | 100%
Cc1cnc(CNc2nc(Nc3ccc(F)c(Cl)c3)ncc2-c2cncc(C(=O)O)c2)cn1 [Example 242, 5-[2-[(3-chloro-4-fluorophenyl)amino]-4-[(5-methylpyrazin-2-yl)methylamino]pyrimidin-5-yl]pyridine-3-carboxylic acid] | 61.3%
OC1CCN(c2nc(Nc3ccc(F)c(Cl)c3)ncc2-c2cncnc2)CC1 [Example 60, 1-[2-[(3-chloro-4-fluorophenyl)amino]-5-pyrimidin-5-ylpyrimidin-4-yl]piperidin-4-ol] | 72.3%
Cc1cc(C(F)(F)F)nn1-c1nc(Nc2ccc3c(c2)CCC3)ncc1-c1cncc(C(=O)O)c1 [Example 669, 5-{2-(2,3-dihydro-1H-inden-5-ylamino)-4-[5-methyl-3-(trifluoromethyl)-1H-pyrazol-1-yl]pyrimidin-5-yl}pyridine-3-carboxylic acid] | 68%
CN(C)CCCNc1nc(Nc2ccc(F)c(Cl)c2)ncc1-c1ccc(C(=O)O)cc1 [Example 216, 4-(2-[(3-chloro-4-fluorophenyl)amino]-4-{[3-(dimethylamino)propyl]amino}pyrimidin-5-yl)benzoic acid] | 96.3%
O=C(O)c1cncc(-c2cnc(Nc3ccc(F)c(Cl)c3)nc2-n2nc(C(F)F)cc2C(F)F)c1 [Example 532, 5-{4-[3,5-bis(difluoromethyl)-1H-pyrazol-1-yl]-2-[(3-chloro-4-fluorophenyl)amino]-pyrimidin-5-yl}pyridine-3-carboxylic acid] | 100%
CONC(=O)c1cc(-c2cnc(Nc3cc(OC)cc(OC)c3)nc2-n2ccc(C(F)(F)F)n2)cnc1OC [Example 811, 5-{2-[(3,5-dimethoxyphenyl)amino]-4-[3-(trifluoromethyl)-1H-pyrazol-1-yl]pyrimidin-5-yl}-N,2-dimethoxypyridine-3-carboxamide] | 100%
COc1cc(Nc2ncc(-c3cnc(OC)c(C(=O)NS(C)(=O)=O)c3)c(-n3nc(C(F)(F)F)cc3C)n2)cc(C(F)(F)F)c1 [Example 902, 2-methoxy-5-(2-(3-methoxy-5-(trifluoromethyl)phenylamino)-4-(5-methyl-3-(trifluoromethyl)-1H-pyrazol-1-yl)pyrimidin-5-yl)-N-(methylsulfonyl)nicotinamide] | 97%
COC1CCN(c2nc(Nc3ccc(F)c(Cl)c3)ncc2-c2cncc(C(=O)O)c2)CC1 [Example 249, 5-[2-[(3-chloro-4-fluorophenyl)amino]-4-(4-methoxypiperidin-1-yl)pyrimidin-5-yl]pyridine-3-carboxylic acid] | 70.8%
COc1cc(Nc2ncc(-c3cccc(/C=C/C(N)=O)c3)c(NCCc3ccncc3)n2)cc(C(F)(F)F)c1 [Example 373, (E)-3-(3-(2-(3-methoxy-5-(trifluoromethyl)phenylamino)-4-(2-(pyridin-4-yl)ethylamino)pyrimidin-5-yl)phenyl)acrylamide] | 82.8%
CCOC(=O)c1cncc(-c2cnc(Nc3ccc(F)c(Cl)c3)nc2NCCCOC)c1 [Example 143, ethyl 5-(2-(3-chloro-4-fluorophenylamino)-4-(3-methoxypropylamino)pyrimidin-5-yl)nicotinate] | 88.6%
O=C(O)c1cncc(-c2cnc(Nc3ccc(F)c(Cl)c3)nc2NCCN2CCS(=O)(=O)CC2)c1 [Example 231, 5-{2-(3-Chloro-4-fluoro-phenylamino)-4-[2-(1,1-dioxo-1λ^6-thiomorpholin-4-yl)-ethylamino]-pyrimidin-5-yl}-nicotinic acid] | 81.5%
CCS(=O)(=O)NC(=O)c1cc(-c2cnc(Nc3cc(OC)cc(OC)c3)nc2-n2ccc(C(F)(F)F)n2)cn(CCOC)c1=O [Example 1164] | 100%
